Laboratory results from patent US4103011A, “Novel penicillin compounds and process for preparation thereof” (priority 1976, dated 1978).
Where a name gives a salt, the structure may show the parent alone. Read-outs that look alike come from different tables or passages of the source.

Experiments:
mice = conditions: mice
[1] = test system: Pseudomonas aeruginosa No. 12; test: In vivo efficacy against systemic infection; design: species or system male mice (ddY); conditions: NO.12, in Mus musculus, twice, about 5 minutes and 6 hours after infection, read-out: ED50 (median effective dose)
Method: (§1) The contents in the vials (No. A and No. C) prepared in Example 17 were each dissolved in deionized water, and injections having various concentrations were prepared.
(§2) Compounds A, B, F, G, H and M were dissolved in deionized water.
(§3) Mice: male mice (ddY) weighting about 20g
Pseudomonas aeruginosa No. 12;
(§4) Intraperitoneal infection with 50 to
(§5) of a bacterial suspension in tryptosoy
(§6) twice, about 5 minutes and 6 hours after
Pseudomonas aeruginosa No. 12
(§7) calculated in accordance with the Behrens-Kaerber method [Arch. Exp. Path

Shigella flexneri 2a = test: In vitro antibacterial activity (MIC); type: cell-based; conditions: read-out: minimum inhibitory concentration (MIC)
Excerpt: (§8) In vitro antibacterial activity against 20 strains of bacteria
(§9) The numerals in the table show minimum inhibitory concentrations (MIC)

[2] = test system: Enterobacter cloacae P-2540; test: In vitro antibacterial activity (MIC); type: cell-based
Excerpt: as §8, §9

[3] = test system: Staphylococcus aureus No. 50774; test: In vitro antibacterial activity (MIC); type: cell-based; conditions: Staphylococcus aureus No. 50774; read-out: minimum inhibitory concentration (MIC)
Excerpt: as §8, §9

Escherichia coli P-140a = test: In vitro antibacterial activity (MIC); type: cell-based
Excerpt: as §8, §9

[4] = test system: Shigella flexneri 4a P-330; test: In vitro antibacterial activity (MIC); type: cell-based; conditions: 4AP330, read-out: minimum inhibitory concentration (MIC)
Excerpt: as §8, §9

Proteus rettgeri P-2503 = test: In vitro antibacterial activity (MIC); type: cell-based; conditions: Providencia rettgeri
Excerpt: as §8, §9

[5] = test system: Pseudomonas aeruginosa No.12; test: In vitro antibacterial activity (MIC); type: cell-based; conditions: Pseudomonas aeruginosa, NO.12, read-out: minimum inhibitory concentration (MIC)
Excerpt: as §8, §9

[6] = test system: Salmonella typhimurium S-9; test: In vitro antibacterial activity (MIC); type: cell-based; conditions: Salmonella enterica; Salmonella typhimurium S-9; read-out: minimum inhibitory concentration (MIC)
Excerpt: as §8, §9

[7] = test system: Pseudomonas aeruginosa Tsuchijima; test: In vitro antibacterial activity (MIC); type: cell-based; conditions: read-out: minimum inhibitory concentration (MIC)
Excerpt: as §8, §9

[8] = test system: Escherichia coli NIHJ JC-2; test: In vitro antibacterial activity (MIC); type: cell-based
Excerpt: as §8, §9

[9] = test system: Salmonella enteritidis No. 1891; test: In vitro antibacterial activity (MIC); type: cell-based; conditions: Salmonella enterica; Salmonella enteritidis No. 1891; read-out: minimum inhibitory concentration (MIC)
Excerpt: as §8, §9

Escherichia coli P-5101 [10] = test: In vitro antibacterial activity (MIC); type: cell-based; conditions: Escherichia coli, P5101, read-out: minimum inhibitory concentration (MIC)
Excerpt: as §8, §9

[11] = test system: Streptococcus faecalis P-2473; test: In vitro antibacterial activity (MIC); type: cell-based; conditions: Enterococcus faecalis
Excerpt: as §8, §9

[12] = test system: Serratia mercescens IFO 3736; test: In vitro antibacterial activity (MIC); type: cell-based
Excerpt: as §8, §9

[13] = test system: Corynebacterium pyogenes C-21; test: In vitro antibacterial activity (MIC); type: cell-based; conditions: Rhodococcus (subgen. Prescottella) equi, C21; Corynebacterium pyogenes C-21; read-out: minimum inhibitory concentration (MIC)
Excerpt: as §8, §9

Proteus mirabilis P-2381 = test: In vitro antibacterial activity (MIC); type: cell-based
Excerpt: as §8, §9

[14] = test system: Streptococcus pyogenes 65A; test: In vitro antibacterial activity (MIC); type: cell-based; conditions: Streptococcus pyogenes 65A; read-out: minimum inhibitory concentration (MIC)
Excerpt: as §8, §9

[15] = test system: Klebsiella pneumoniae No. 13; test: In vitro antibacterial activity (MIC); type: cell-based; conditions: Klebsiella pneumoniae No. 13; read-out: minimum inhibitory concentration (MIC)
Excerpt: as §8, §9

Proteus morganii Kono = test: In vitro antibacterial activity (MIC); type: cell-based; conditions: Morganella morganii, read-out: minimum inhibitory concentration (MIC)
Excerpt: as §8, §9

[16] = test system: Staphylococcus aureus 209P JC-1; test: In vitro antibacterial activity (MIC); type: cell-based; conditions: Staphylococcus aureus 209P JC-1; read-out: minimum inhibitory concentration (MIC)
Excerpt: as §8, §9

in vivo = conditions: mouse
[17] = test system: Staphylococcus aureus No. 50774; test: In vivo efficacy against systemic infection; design: species or system male mice (ddY); conditions: NO.50774, in Mus musculus, 336 h, sc, twice, about 5 minutes and 6 hours after infection, read-out: ED50 (median effective dose)
Method: as §1
(§10) Compounds A, B, F, G, H and M were dissolved in deionized water. Compounds C, D, E and J were dissolved in an aqueous solution of sodium carbonate (pH 8-9) to prepare injections of various concentrations.
(§11) Each of the injections was administered to mice under the conditions described below, and the median effective doses (ED50) obtained are shown in Table II.
as §3
Staphylococcus aureus No. 50774;
Intravenous infection with 50 to 100
LD50 (about 5 × 10^8cells/mouse) of a
bacterial suspension in saline.
as §6
Staphylococcus aureus No. 50774 14 days
The numerals in the table show ED50 (mg/kg). ED50 values were
as §7

[18] = test system: bacteria (systemic infection); test: In vivo efficacy against systemic infection, overall conclusions; design: species or system male mice (ddY); conditions: Table II
Method: as §1, §10, §11

Escherichia coli P-5101 [19] = test: In vivo efficacy against systemic infection; design: species or system male mice (ddY); conditions: P5101, in Mus musculus, 168 h, twice, about 5 minutes and 6 hours after infection, read-out: ED50 (median effective dose)
Method: as §1, §2, §3, §4, §5, §6, §7

[20] = Enterobacter cloacae, P2540, read-out: minimum inhibitory concentration (MIC)
[21] = P2503, read-out: minimum inhibitory concentration (MIC)
[22] = Escherichia coli, NIHJJC2, read-out: minimum inhibitory concentration (MIC)
[23] = Pseudomonas aeruginosa Tsuchijima
[24] = P2473, Streptococcus faecalis P-2473, read-out: minimum inhibitory concentration (MIC)
[25] = IFO3736, Serratia mercescens IFO 3736, read-out: minimum inhibitory concentration (MIC)
[26] = Proteus mirabilis, P2381, read-out: minimum inhibitory concentration (MIC)

With `CCN1CCN(C(=O)N[C@@H](C(=O)N[C@@H]2C(=O)N3[C@@H]2SC(C)(C)[C@@H]3C(=O)O)c2ccccc2)C(=O)C1=O` [Compound H, D-α-(4-Ethyl-2,3-dioxopiperazine-1-carboxamido)-benzylpenicillin sodium salt] the “LD50 compared with compounds 1 and 2 (in words)” value (mice) was “almost the same”, the ED50 ([1]; iv) was greater than 100 mg/kg and the ED50 ([1]; sc) was 141 mg/kg. For the same compound, the MIC (Shigella flexneri 2a) was 1.56 µg/mL, the MIC [2, 20] was 3.13 µg/mL and the MIC [3] was 0.78 µg/mL. The “minimum inhibitory concentration (MIC)” value (Escherichia coli P-140a) was 12.5 µg/mL, the MIC [4] was 3.13 µg/mL and the MIC (Proteus rettgeri P-2503; [21]) was 1.56 µg/mL. The MIC [5] was 3.13 µg/mL, the MIC [6] was 0.39 µg/mL and the MIC ([7]; Pseudomonas aeruginosa) was 1.56 µg/mL. For the same compound, the MIC [8, 22] was 3.13 µg/mL, the MIC [9] was 0.39 µg/mL and the MIC (Escherichia coli P-5101 [10]) was 1.56 µg/mL. It also gave an MIC ([11]; P2473, read-out: minimum inhibitory concentration (MIC)) of 3.13 µg/mL, an MIC ([12]; Serratia, IFO3736, read-out: minimum inhibitory concentration (MIC)) of 0.78 µg/mL and an MIC [13] of 6.25 µg/mL. For the same compound, the MIC (Proteus mirabilis P-2381; P2381, Proteus mirabilis P-2381, read-out: minimum inhibitory concentration (MIC)) was 0.78 µg/mL, the MIC [14] was 0.025 µg/mL and the MIC [15] was 6.25 µg/mL. The MIC (Proteus morganii Kono; Proteus morganii Kono) was 0.78 µg/mL, the MIC [16] was 0.39 µg/mL and the LD50 at 168 h (in vivo; iv) was greater than 4000 mg/kg. It also gave an LD50 at 168 h (in vivo; sc) greater than 6000 mg/kg, a selectivity ratio (in vivo; sc) greater than 42 and an ED50 [17] of 8.8 mg/kg. The “antibacterial activity in vivo as fraction of that of the penicillin compounds of this invention” value [18] was “one-twentieth to one-seventieth”, the ED50 (Escherichia coli P-5101 [19]; iv) was 43.3 mg/kg and the ED50 (Escherichia coli P-5101 [19]; sc) was 26.3 mg/kg.

For `CC1(C)S[C@@H]2[C@H](NC(=O)[C@H](NC(=O)c3c[nH]c4nc(N)ncc4c3=O)c3ccc(O)cc3)C(=O)N2[C@H]1C(=O)O` [Compound G, D-α-(5,8-Dihydro-2-amino-5-oxopyrido[2,3-d]pyrimidine-6-carboxamido)-p-hydroxybenzylpenicillin sodium salt], the ED50 ([1]; iv) was 3.9 mg/kg, the ED50 ([1]; sc) was 4.4 mg/kg and the MIC (Shigella flexneri 2a) was 3.13 µg/mL. The MIC [2, 20] was 6.25 µg/mL, the MIC [3] was 0.39 µg/mL and the “minimum inhibitory concentration (MIC)” value (Escherichia coli P-140a) was 50 µg/mL. It also gave an MIC [4] of 6.25 µg/mL, an MIC (Proteus rettgeri P-2503; [21]) of 6.25 µg/mL and an MIC [5] of 3.13 µg/mL. The MIC [6] was 1.56 µg/mL, the MIC [7, 23] was 0.39 µg/mL and the MIC [8, 22] was 6.25 µg/mL. For the same compound, the MIC [9] was 0.78 µg/mL, the MIC (Escherichia coli P-5101 [10]) was 3.13 µg/mL and the MIC [11, 24] was 1.56 µg/mL. For the same compound, the MIC [12, 25] was 12.5 µg/mL, the MIC [13] was 0.78 µg/mL and the MIC (Proteus mirabilis P-2381; [26]) was 3.13 µg/mL. The MIC [14] was less than 0.1 µg/mL, the MIC [15] was 25 µg/mL and the MIC (Proteus morganii Kono) was 6.25 µg/mL. The MIC [16] was 0.39 µg/mL, the LD50 at 168 h (in vivo; iv) was 1000 mg/kg and the selectivity ratio (in vivo; iv) was 256. For the same compound, the LD50 at 168 h (in vivo; sc) was 1000 mg/kg, the selectivity ratio (in vivo; sc) was 227 and the ED50 [17] was roughly 0.8 mg/kg. For the same compound, the “antibacterial activity in vivo (in words)” value [18] was “almost comparable”, the ED50 (Escherichia coli P-5101 [19]; iv) was 8.8 mg/kg and the ED50 (Escherichia coli P-5101 [19]; sc) was 11.5 mg/kg.

For `CNc1ncc2c(=O)c(C(=O)N[C@@H](C(=O)N[C@@H]3C(=O)N4[C@@H]3SC(C)(C)[C@@H]4C(=O)O)c3ccc(O)cc3)c[nH]c2n1` [Compound F, D-α-(5,8-Dihydro-2-methylamino-5-oxopyrido[2,3-d]pyrimidine-6-carboxamido)-p-hydroxybenzylpenicillin sodium salt], the ED50 ([1]; iv) was 5.7 mg/kg, the ED50 ([1]; sc) was 4.8 mg/kg and the MIC (Shigella flexneri 2a) was 3.13 µg/mL. The MIC ([2]; P2540, Enterobacter cloacae P-2540, read-out: minimum inhibitory concentration (MIC)) was 12.5 µg/mL, the MIC [3] was 0.39 µg/mL and the “minimum inhibitory concentration (MIC)” value (Escherichia coli P-140a) was 25 µg/mL. For the same compound, the MIC [4] was 6.25 µg/mL, the MIC (Proteus rettgeri P-2503; P2503, Proteus rettgeri P-2503, read-out: minimum inhibitory concentration (MIC)) was 12.5 µg/mL and the MIC [5] was 6.25 µg/mL. The MIC [6] was 1.56 µg/mL, the MIC [7, 23] was 0.78 µg/mL and the MIC ([8]; NIHJJC2, Escherichia coli NIHJ JC-2, read-out: minimum inhibitory concentration (MIC)) was 12.5 µg/mL. The MIC [9] was 1.56 µg/mL, the MIC (Escherichia coli P-5101 [10]) was 3.13 µg/mL and the MIC [11, 24] was 1.56 µg/mL. The MIC [12, 25] was 12.5 µg/mL, the MIC [13] was 0.78 µg/mL and the MIC (Proteus mirabilis P-2381; [26]) was 3.13 µg/mL. For the same compound, the MIC [14] was less than 0.1 µg/mL, the MIC [15] was 25 µg/mL and the MIC (Proteus morganii Kono; Proteus morganii Kono) was 12.5 µg/mL. For the same compound, the MIC [16] was 0.39 µg/mL, the LD50 at 168 h (in vivo; iv) was 1410 mg/kg and the selectivity ratio (in vivo; iv) was 248. The LD50 at 168 h (in vivo; sc) was 1410 mg/kg, the selectivity ratio (in vivo; sc) was 295 and the ED50 [17] was roughly 0.7 mg/kg. For the same compound, the “antibacterial activity in vivo (in words)” value [18] was “almost comparable”, the ED50 (Escherichia coli P-5101 [19]; iv) was 12 mg/kg and the ED50 (Escherichia coli P-5101 [19]; sc) was 6.3 mg/kg.
